What all share (type): cell-based, human
Experiment [1] concerns expanded cord blood CD34+ cells, megakaryocyte lineage (CD41, CD42b). Briefly: Megakaryocyte Differentiation Culture after Expansion Culture (Example 38). On the procedure:
(§1) At days 21 and 63, CD34+ enriched cells were placed into Differentiation Cultures, described below.
(§2) Differentiation cultures were initiated using Erythroid, Myeloid (granulocyte and monocyte), and Megakaryocyte HemaTox kits from STEMCELL technologies following the manufacturer's instructions. In brief, lineage media was prepared by adding cytokine cocktails for erythrocyte (SCF, IL-3, and EPO), myeloid (i.e. mixed granulocyte/monocyte, SCF, TPO, G-CSF, and GM-CSF) or megakaryocyte (SCF, IL-6, IL-9 and TPO) lineage differentiation to their respective kits' media, then adding approximately 30-100 CD34+ cells for erythroid or myeloid cultures, or 300-1000 CD34+ cells for megakaryoid cultures. Exact cell numbers plated were quantified for later analysis. All incubations for Differentiation Culture took place at 3% oxygen (controlled by nitrogen) and 5% CO2.
(§3) Following seven days of erythroid or myeloid cultures, or ten days for megakaryoid cultures, differentiated cell output was quantified using flow cytometry. Erythroid output was quantified using anti-CD71 and anti-CD235a antibodies, and megakaryocyte lineage output was quantified using anti-CD41 and anti-CD42b antibodies. Granulocyte and monocyte lineage outputs were assessed in tandem, using CD14 and CD15 antibodies, with granulocyte lineage cells being CD15+/CD14−, and monocyte lineage cells being CD14+/CD15−.
A number of quantities were calculated to assess the effect of expansion of CD34+ cells in the +Formula I Condition on the output of lineage differentiated cells. “Per-Assayed-CD34+ Cell Output” describes the output of differentiated cells per CD34+ cell placed into Differentiation Culture, and is calculated by dividing the total number of lineage-positive cells by the input CD34+ cell number quantified at Differentiation Culture initiation at day 1, 21, or 63. […]

Experiment [2] has as its system CD3+ and CD3+/CD8+ T cells. Briefly: T-cell Maturation and CD8 Maturation Culture (Example 41). On the procedure: Following 14 days in Lymphoid Progenitor Differentiation Cultures, cells were placed into T- and NK-cell Maturation Cultures.
For T-cell Maturation Cultures, 24-well non-TC-treated plates were coated with StemSpan Lymphoid Differentiation Coating Material (STEMCELL Technologies) according to the manufacturer's instructions. Immediately prior to initiation of T-cell Maturation Culture, wells were washed with PBS. Cells from L Diff Cultures were plated at 50,000 cells/well in 500 μl of T Cell Progenitor Maturation Medium, comprising StemSpan SFEM II medium with StemSpan T Cell Progenitor Maturation Supplement.
Following 4 days of culture, NK- and T-cell Maturation Cultures' medias were replenished by adding an equal volume of the same culture media added on day 14. At days 21 and 25 of NK- or T-cell Maturation Cultures, half-media changes were performed by removing half of the total volume of media without disturbing cells and adding media freshly prepared as on day 14.
Following 7 and 14 days in NK- and T-cell Maturation Culture (21 and 28 days from initiation of Lymphoid Differentiation Culture, respectively), cells were stained with antibodies to CD56, CD3, CD161, CD94, and CD16 and analyzed via flow cytometry to quantify T and NK lineage phenotypes.
T-cell Maturation Cultures were continued for an additional 14 days, plated at 50,000-75,000 cells/well into 24-well non-TC-treated plates freshly coated with Lymphoid Differentiation Coating Material as above. Cultures were continued for this 14 day-period with half-media changes every 3-4 days.
Following a total of 42 days in Lymphoid Progenitor Differentiation and T-cell Maturation cultures, T cells from 14-day+Formula I-expanded L Diff Culture and 14-day DMSO-expanded L Diff Culture were placed into CD8 Maturation Culture as follows: A 24-well plate was coated with Lymphocyte Differentiation Coating Medium as above. […] Following 6 days in this maturation medium, cells were analyzed for mature T cell phenotypes by staining for CD3, CD8a, CD4, CD56 and performing flow cytometry on an Attune N×T flow cytometer. […]

The test system of experiment [3] is expanded cord blood CD34+ cells, erythroid lineage (CD71, CD235a). Briefly: Erythroid Differentiation Culture after Expansion Culture (Example 38). The note with it: for cells with markers of erythrocyte differentiation (CD71 and/or CD235a), of total cells: seven days Erythroid Differentiation Culture; for cells with markers of erythrocyte differentiation (CD71 and/or CD235a), of total cells / cells positive for CD235a (maturing erythrocyte differentiation): average. The procedure: as §1, §2, §3
A number of quantities were calculated to assess the effect of expansion of CD34+ cells in the +Formula I Condition on the output of lineage differentiated cells. “Per-Assayed-CD34+ Cell Output” describes the output of differentiated cells per CD34+ cell placed into Differentiation Culture, and is calculated by dividing the total number of lineage-positive cells by the input CD34+ cell number quantified at Differentiation Culture initiation at day 1, 21, or 63. “Per-expanded-day-1-CD34+ cell output” describes the number of differentiated cells of a given lineage that may be produced from a single CD34+ cell following both Expansion Cell Culture (if expanded) followed by Differentiation Culture, and is calculated by multiplying Per-Assayed-CD34+ Cell Output by the fold expansion of CD34+ cells from day 1 to the day of analysis, either day 21 or day 63. “Per-banked-CBU lineage output” describes the number of differentiated cells of a given lineage that may be produced using the CD34+ cells from a full cord blood unit, and is calculated by multiplying the per-expanded-day-1-CD34+ cell output by 2×10^6, a conservative estimate the number of CD34+ cells in an average cord held in a public cord blood bank (Sun, J., Allison, J., McLaughlin, C., Sledge, L., Waters-Pick, B., Wease, S., and Kurtzberg, J. (2010). Differences in quality between privately and publicly banked umbilical cord blood units: a pilot study of autologous cord blood infusion in children with acquired neurologic disorders. Transfusion (Paris) 50, 1980-1987). This per-banked-CBU lineage output provides the ability to gauge the number of therapeutic units that may be derived from a single cord blood unit available as input to the manufacturing of a therapeutic product, and enables comparison to current state-of-the-art methods. Where relevant therapeutic dose benchmarks were available, this per-banked-CBU lineage output was used to calculate the number of therapeutic units that may be prepared from a single banked CBU unit. We calculated therapeutic units for granulocyte precursors, using 50 billion (5×10^10) cells per dose as a conservative benchmark (Valentini, C. G., Farina, F., Pagano, L., and Teofili, L. (2017). Granulocyte Transfusions: A Critical Reappraisal. Biol. Blood Marrow Transplant. 23, 2034-2041). […]

[4] abbreviates: CD8, Lymphoid Diff day 49, +Formula I-expanded CD34+ cells.

Turning to `CC(C)(C)C(=O)Nc1ccc2c(c1)C(O)c1ccccc1-2` (stereo not shown) [Compound 1.010], the “fold increase of per-expanded-day-1-CD34+ cell output, total megakaryocyte lineage, over uncultured cells” value is recorded as 18 fold in experiment [1] (+Formula I expansion to day 21, then 10 days differentiation) and 3,400 fold in experiment [1] (+Formula I expansion to day 63, then 10 days differentiation). Moreover, in experiment [1] (Formula I-expanded, either 21 or 63 days of prior Expansion Cell Culture, Megakaryocyte Differentiation Culture), the “CD42b+ cells of CD41+ cells” value was “approximately 50%”. Besides, the “% Mature cells: CD4+/CD8α+ of Live/CD3+/CD56−” value in experiment [2] (setting [4]) is 0.5%. Moreover, the “% Mature cells: CD4−/CD8α+ of Live/CD3+/CD56−” value in experiment [2] (setting [4]) is given as 95%. Moreover, in experiment [2] (CD34+ cells first expanded for 14 days in +Formula I conditions), the “CD8a+ cells, of CD3+ cells” value was determined as 95%. Further, the “fold increase of per-expanded-day-1-CD34+ cell output, erythroid lineage, over uncultured cells” value is given as 301 fold in experiment [3] (+Formula I expansion (Compound 1.010 8 μM) to day 21, then 7 days differentiation) and 91,000 fold in experiment [3] (+Formula I expansion to day 63, then 7 days differentiation). For the same compound, the “CD71−/CD235a+ cells (mature erythrocytes)” value in experiment [3] (expanded 21 or 63 days in Formula I condition, day seven of Erythroid Differentiation Culture) was “No CD71−/CD235a+ cells were detected”. Also, the “cells with markers of erythrocyte differentiation (CD71 and/or CD235a), of total cells” value worked out at 50% in experiment [3] (expanded 21 days in Formula I Condition) and 75% in experiment [3] (expanded 63 days in Formula I Condition). Further, the “cells positive for CD235a (maturing erythrocyte differentiation)” value in experiment [3] (expanded 21 days in Formula I condition, day seven of Erythroid Differentiation Culture) worked out at 46%; in experiment [3] (expanded 63 days in Formula I condition, day seven of Erythroid Differentiation Culture) it was 86%.

(Values after patent publication US20220315895A1, “METHODS OF MAKING OLIGOPOTENT AND UNIPOTENT PRECURSORS” (Transfusion Health, LLC, priority 2019, published 2022).)
